Data: US20230302131A1, “MPC INHIBITION FOR PRODUCING T-CELLS WITH A MEMORY PHENOTYPE” (UNIVERSITÉ DE LAUSANNE, priority 2020, published 2023)

System: adult human CD8 T cells
Assay: Adult human PBMC activation with anti-CD3/CD28 beads, T cell phenotype by flow cytometry
Assay type: cell-based
Conditions: adult PBMCs, day 9, vs DMSO
Experimental: FIG. 7: MPC inhibition during the activation and culture of adult human T cells induces a memory phenotype. (A) Experimental design. PBMCs were isolated from adult healthy volunteers and activated with anti-CD3/CD28 beads in the presence of DMSO or UK5099 (25 μM). Beads were removed at day 5 and T cell phenotype was analysed at day 9. (B) Percentage of CD8 T cells expressing the memory marker CD62L. (C) The mean fluorescent intensity of CD62L in the respective positive population. (D) Percentage of CD8 T cells expressing markers that allows their identification as stem cell memory T cells (TSCM). (E-F) Mitochonrial mass (identified by MitoGreen staining, E) and mitochondrial membrane potential (TMRM, F), measured by flow cytometry and expressed as fold change as compared to DMSO. (G) Mitochondrial membrane potential normalized for the mitochondrial mass, expressed as the ratio of […], fold change as compared to DMSO. Pooled data from 2 independant experiments. ns: non-significant, *p<0.05, **[…], ***p<0.001. Data represents mean±s.e.m.
Heparinised blood was diluted with PBS and pipetted on top of Ficoll-paque (LymphoPrep). After centrifugation at 1800 rpm for 20 minutes at room temperature, the layer of cells at the intersection, containing the PBMCs was removed, washed and resuspended at 5×10^5 cells/ml of RPMI medium containing 8% human serum (AB serum), antibiotics, 2 mM L-Glutamine, 1% non-essential amino acids, 1 mM sodium pyruvate and 50 μM β-mercaptoethanol (all Gibco). Cells were activated with Human T-activator CD3/CD28 Dynabeads at a 1 bead/cell ratio with 150 IU/ml human recombinant IL2 and DMSO or 25 μM UK5099. Throughout the culture, cells were regularly split when necessary and beads were removed at day 5. At day 9, a fraction of the cells was stained with antibodies for flow cytometry analysis or for mitochondrial analysis.

## CC(C)(O)CNc1nc(Nc2ccnc(C(F)(F)F)c2)nc(-c2cccc(C(F)(F)F)n2)n1 [AG221]
UK5099 25 μM
  population of CD8 T cells positive for CD62L: further induce
  mean fluorescent intensity of the CD62L signal in the CD62L-positive cells: increased
